Patent US3965260A, “Anti-inflammatory dipeptide” (McArthur; John N., priority 1975, dated 1976)
Peptide text beside a SMILES is read from it.

Tests used:
[1] = tested on: mammalian plasma and tissue peptidases
[2] = in vivo

Compound | hydrolysis by mammalian plasma and tissue peptidases [1] | half life [2]
N[C@H](Cc1ccccc1)C(=O)N[C@H](Cc1ccccc1)C(=O)O [D-phenylalanyl-D-phenylalanine] (HELM PEPTIDE1{[dF].[dF]}$$$$V2.0) | resist rapid hydrolysis | ≥ 6 h
N[C@H](Cc1ccccc1)C(=O)N[C@H](Cc1c[nH]c2ccccc12)C(=O)O [D-phenylalanyl-D-tryptophan] (HELM PEPTIDE1{[dF].[dW]}$$$$V2.0) | resist rapid hydrolysis | ≥ 6 h
N[C@H](Cc1c[nH]c2ccccc12)C(=O)N[C@H](Cc1ccccc1)C(=O)O [D-tryptophanyl-D-phenylalanine] (HELM PEPTIDE1{[dW].[dF]}$$$$V2.0) | resist rapid hydrolysis | ≥ 6 h
N[C@H](Cc1c[nH]c2ccccc12)C(=O)N[C@H](Cc1c[nH]c2ccccc12)C(=O)O [D-tryptophanyl-D-tryptophan] (HELM PEPTIDE1{[dW].[dW]}$$$$V2.0) | resist rapid hydrolysis | ≥ 6 h
